The values below come from patent US20240209028A1, “CNP COMPOUNDS” (priority 2022, published 2024).

Starred links: 1 amine or outer side, 2 acyl side, 3 side chain; linkers in the order of their positions; H or OH if unused. Positions of bridges follow the written chain, without caps; N, C: chain ends. Residues, ends and D or L forms follow the SMILES beside them. *: point of attachment. C20 diacid = O=C(O)CCCCCCCCCCCCCCCCCCC(=O)*; C18 diacid = O=C(O)CCCCCCCCCCCCCCCCC(=O)*; γGlu = O=C(O)[C@H](CCC(=O)[*:2])N[*:1]; AEEA = NCCOCCOCC(=O)O

The target in this assay is T1, human natriuretic peptide receptor 2 (hNPR2) (Homo sapiens, UniProt P20594).
T1 construct: expressed in transfected cells; host or cells: HEK293 (ATCC CRL-1573), clone 35, co-transfected with pGloSensor-42F
T1 sequence (P20594 23-1047): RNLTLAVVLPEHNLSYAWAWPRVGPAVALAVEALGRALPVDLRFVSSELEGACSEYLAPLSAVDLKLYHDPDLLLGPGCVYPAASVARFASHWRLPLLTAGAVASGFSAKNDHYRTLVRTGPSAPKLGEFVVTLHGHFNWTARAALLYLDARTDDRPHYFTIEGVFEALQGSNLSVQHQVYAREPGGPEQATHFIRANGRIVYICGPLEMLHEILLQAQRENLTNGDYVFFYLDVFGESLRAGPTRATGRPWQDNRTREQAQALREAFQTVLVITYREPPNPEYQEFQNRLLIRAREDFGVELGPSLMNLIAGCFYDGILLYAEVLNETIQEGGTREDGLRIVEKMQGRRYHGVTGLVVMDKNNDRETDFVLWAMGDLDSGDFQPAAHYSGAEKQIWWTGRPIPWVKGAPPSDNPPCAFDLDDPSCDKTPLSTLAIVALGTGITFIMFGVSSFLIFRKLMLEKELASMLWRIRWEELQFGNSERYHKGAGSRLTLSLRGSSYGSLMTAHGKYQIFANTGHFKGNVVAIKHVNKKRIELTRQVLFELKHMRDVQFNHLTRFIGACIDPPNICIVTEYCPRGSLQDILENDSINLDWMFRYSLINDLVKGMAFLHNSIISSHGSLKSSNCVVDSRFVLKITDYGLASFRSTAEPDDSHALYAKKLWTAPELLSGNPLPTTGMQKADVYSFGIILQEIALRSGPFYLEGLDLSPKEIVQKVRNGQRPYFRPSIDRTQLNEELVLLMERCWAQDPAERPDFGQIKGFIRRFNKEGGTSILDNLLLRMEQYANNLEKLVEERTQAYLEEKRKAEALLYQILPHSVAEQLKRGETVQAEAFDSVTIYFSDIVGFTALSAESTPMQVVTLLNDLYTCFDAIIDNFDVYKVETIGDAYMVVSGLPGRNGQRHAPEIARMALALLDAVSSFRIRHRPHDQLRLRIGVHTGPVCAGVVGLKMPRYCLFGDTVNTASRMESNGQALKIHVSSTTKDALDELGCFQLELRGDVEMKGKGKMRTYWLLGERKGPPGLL
Briefly: In vitro hNPR2 activity assay (cGMP GloSensor reporter, HEK293). In kind it is cell-based. The note with it: potency relative to CNP22 (0065). The essentials:
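Potency is the EC50 from a four-parameter logistic fit, also expressed relative to the in-plate CNP22 control (×100), with at least two replicates. Compounds (ten concentrations, […], HSA-free diluent with 1% OVA, 0.01% Tween20) were incubated 30 min at 37 °C on HEK293 cells co-expressing hNPR2 and a GloSensor cGMP luciferase. Luminescence detected with Bright-Glo.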
Consider `CC[C@H](C)[C@@H]1NC(=O)[C@H](CCCNC(=N)N)NC(=O)[C@H](CC(=O)O)NC(=O)[C@H](CC(C)C)NC(=O)[C@@H]2CCCN2C(=O)[C@H](CC(C)C)NC(=O)CNC(=O)[C@H](Cc2ccccc2)NC(=O)[C@@H](NC(=O)CNC(=O)[C@H](CCC(N)=O)NC(=O)[C@H](CO)NC(=O)[C@H](CC(C)C)NC(=O)CNC(=O)[C@H](CCCCN)NC(=O)[C@H](CCCCN)NC(=O)[C@H](CCC(N)=O)NC(=O)[C@H](C)NC(=O)CNC(=O)[C@H](CCC(=O)O)NC(=O)[C@H](Cc2ccc(O)cc2)NC(=O)[C@H](CCCCN)NC(=O)[C@H](CCCNC(=N)N)NC(=O)[C@H](C)NC(=O)[C@H](CCC(N)=O)NC(=O)[C@@H]2CCCN2C(=O)[C@H](Cc2c[nH]cn2)NC(=O)[C@H](CCC(=O)O)NC(=O)[C@H](CCC(N)=O)NC(=O)COCCOCCNC(=O)COCCOCCNC(=O)CC[C@H](NC(=O)CCCCCCCCCCCCCCCCC(=O)O)C(=O)O)CSSC[C@@H](C(=O)O)NC(=O)CNC(=O)[C@H](CC(C)C)NC(=O)CNC(=O)[C@H](CO)NC(=O)[C@H](CC(C)C)NC(=O)[C@H](CO)NC(=O)CNC1=O` [compound 1394] ({C18 diacid-γGlu-AEEA-AEEA}-QEHPQARKYEGAQKKGLSQGCFGLPLDRIGSLSGLGC-OH; disulfide 21-37), for which the “hNPR2 0% HSA. [EC50% rel CNP]” value turned out to be 93.9%. In the case of `CC[C@H](C)[C@@H]1NC(=O)[C@H](CCCNC(=N)N)NC(=O)[C@H](CC(=O)O)NC(=O)[C@H](CC(C)C)NC(=O)[C@@H]2CCCN2C(=O)[C@H](CC(C)C)NC(=O)CNC(=O)[C@H](Cc2ccccc2)NC(=O)[C@@H](NC(=O)CNC(=O)[C@H](CCC(N)=O)NC(=O)[C@H](CO)NC(=O)[C@H](CC(C)C)NC(=O)CNC(=O)[C@H](CCCCN)NC(=O)[C@H](CCCCN)NC(=O)[C@H](CCC(N)=O)NC(=O)[C@H](C)NC(=O)CNC(=O)[C@H](CCC(=O)O)NC(=O)[C@H](Cc2ccc(O)cc2)NC(=O)[C@H](CCCCN)NC(=O)[C@H](C)NC(=O)[C@H](C)NC(=O)[C@H](CCC(N)=O)NC(=O)[C@@H]2CCCN2C(=O)[C@H](Cc2c[nH]cn2)NC(=O)[C@H](CCC(=O)O)NC(=O)[C@H](CCC(N)=O)NC(=O)COCCOCCNC(=O)COCCOCCNC(=O)CC[C@H](NC(=O)CCCCCCCCCCCCCCCCC(=O)O)C(=O)O)CSSC[C@@H](C(=O)O)NC(=O)CNC(=O)[C@H](CC(C)C)NC(=O)CNC(=O)[C@H](CO)NC(=O)[C@H](CC(C)C)NC(=O)[C@H](CO)NC(=O)CNC1=O` [compound 1395] ({C18 diacid-γGlu-AEEA-AEEA}-QEHPQAAKYEGAQKKGLSQGCFGLPLDRIGSLSGLGC-OH; disulfide 21-37) it was 60.2%; in that of `CC[C@H](C)[C@@H]1NC(=O)[C@H](CCCNC(=N)N)NC(=O)[C@H](CC(=O)O)NC(=O)[C@H](CC(C)C)NC(=O)[C@@H]2CCCN2C(=O)[C@H](CC(C)C)NC(=O)CNC(=O)[C@H](Cc2ccccc2)NC(=O)[C@@H](NC(=O)CNC(=O)[C@H](CCC(N)=O)NC(=O)[C@H](CO)NC(=O)[C@H](CC(C)C)NC(=O)CNC(=O)[C@H](CCCCN)NC(=O)[C@H](CCCCN)NC(=O)[C@H](CCC(N)=O)NC(=O)[C@H](C)NC(=O)CNC(=O)[C@H](CCC(=O)O)NC(=O)[C@H](Cc2ccc(O)cc2)NC(=O)[C@H](CCCCN)NC(=O)[C@H](CCCNC(=N)N)NC(=O)[C@H](C)NC(=O)[C@H](CCC(N)=O)NC(=O)[C@@H]2CCCN2C(=O)[C@H](Cc2c[nH]cn2)NC(=O)[C@H](CCC(=O)O)NC(=O)[C@H](CCC(N)=O)NC(=O)COCCOCCNC(=O)COCCOCCNC(=O)CC[C@H](NC(=O)CC[C@H](NC(=O)CCCCCCCCCCCCCCCCC(=O)O)C(=O)O)C(=O)O)CSSC[C@@H](C(=O)O)NC(=O)CNC(=O)[C@H](CC(C)C)NC(=O)CNC(=O)[C@H](CO)NC(=O)[C@H](CC(C)C)NC(=O)[C@H](CO)NC(=O)CNC1=O` [compound 1396] ({C18 diacid-γGlu-γGlu-AEEA-AEEA}-QEHPQARKYEGAQKKGLSQGCFGLPLDRIGSLSGLGC-OH; disulfide 21-37), 43.1%; in that of `CC[C@H](C)[C@@H]1NC(=O)[C@H](CCCNC(=N)N)NC(=O)[C@H](CC(=O)O)NC(=O)[C@H](CC(C)C)NC(=O)[C@@H]2CCCN2C(=O)[C@H](CC(C)C)NC(=O)CNC(=O)[C@H](Cc2ccccc2)NC(=O)[C@@H](NC(=O)CNC(=O)[C@H](CCC(N)=O)NC(=O)[C@H](CO)NC(=O)[C@H](CO)NC(=O)CNC(=O)[C@H](CCCCN)NC(=O)[C@H](CCCCN)NC(=O)[C@H](CCC(N)=O)NC(=O)[C@H](C)NC(=O)CNC(=O)[C@H](CCCCN)NC(=O)[C@H](Cc2ccc(O)cc2)NC(=O)[C@H](Cc2c[nH]cn2)NC(=O)[C@H](CCCNC(=N)N)NC(=O)[C@H](C)NC(=O)[C@H](CCC(N)=O)NC(=O)[C@@H]2CCCN2C(=O)[C@H](Cc2c[nH]cn2)NC(=O)[C@H](CCC(=O)O)NC(=O)[C@H](CCC(N)=O)NC(=O)COCCOCCNC(=O)COCCOCCNC(=O)CC[C@H](NC(=O)CC[C@H](NC(=O)CC[C@H](NC(=O)CC[C@H](NC(=O)CCCCCCCCCCCCCCCCC(=O)O)C(=O)O)C(=O)O)C(=O)O)C(=O)O)CSSC[C@@H](C(=O)O)NC(=O)CNC(=O)[C@H](CC(C)C)NC(=O)CNC(=O)[C@H](CO)NC(=O)[C@H](CC(C)C)NC(=O)[C@H](CO)NC(=O)CNC1=O` [compound 1398] ({C18 diacid-γGlu-γGlu-γGlu-γGlu-AEEA-AEEA}-QEHPQARHYKGAQKKGSSQGCFGLPLDRIGSLSGLGC-OH; disulfide 21-37), 55.6%. With `CC[C@H](C)[C@@H]1NC(=O)[C@H](CCCNC(=N)N)NC(=O)[C@H](CC(=O)O)NC(=O)[C@H](CC(C)C)NC(=O)[C@@H]2CCCN2C(=O)[C@H](CC(C)C)NC(=O)CNC(=O)[C@H](Cc2ccccc2)NC(=O)[C@@H](NC(=O)CNC(=O)[C@H](CCC(N)=O)NC(=O)[C@H](CO)NC(=O)[C@H](CO)NC(=O)CNC(=O)[C@H](CCCCN)NC(=O)[C@H](CCCCN)NC(=O)[C@H](CCC(N)=O)NC(=O)[C@H](C)NC(=O)CNC(=O)[C@H](CCCCN)NC(=O)[C@H](Cc2ccc(O)cc2)NC(=O)[C@H](Cc2c[nH]cn2)NC(=O)[C@H](CCCNC(=N)N)NC(=O)[C@H](C)NC(=O)[C@H](CCC(N)=O)NC(=O)[C@@H]2CCCN2C(=O)[C@H](Cc2c[nH]cn2)NC(=O)[C@H](CCC(=O)O)NC(=O)[C@H](CCC(N)=O)NC(=O)COCCOCCNC(=O)COCCOCCNC(=O)CC[C@H](NC(=O)CC[C@H](NC(=O)CC[C@H](NC(=O)CC[C@H](NC(=O)CCCCCCCCCCCCCCCCCCC(=O)O)C(=O)O)C(=O)O)C(=O)O)C(=O)O)CSSC[C@@H](C(=O)O)NC(=O)CNC(=O)[C@H](CC(C)C)NC(=O)CNC(=O)[C@H](CO)NC(=O)[C@H](CC(C)C)NC(=O)[C@H](CO)NC(=O)CNC1=O` [compound 1399] ({C20 diacid-γGlu-γGlu-γGlu-γGlu-AEEA-AEEA}-QEHPQARHYKGAQKKGSSQGCFGLPLDRIGSLSGLGC-OH; disulfide 21-37), the “hNPR2 0% HSA. [EC50% rel CNP]” value turned out to be 137.0%. Consider `CC[C@H](C)[C@@H]1NC(=O)[C@H](CCCNC(=N)N)NC(=O)[C@H](CC(=O)O)NC(=O)[C@H](CC(C)C)NC(=O)[C@@H]2CCCN2C(=O)[C@H](CC(C)C)NC(=O)CNC(=O)[C@H](Cc2ccccc2)NC(=O)[C@@H](NC(=O)CNC(=O)[C@H](CCC(N)=O)NC(=O)[C@H](CO)NC(=O)CNC(=O)CNC(=O)[C@H](CCCCN)NC(=O)[C@H](CCCCN)NC(=O)[C@H](CCC(N)=O)NC(=O)[C@H](C)NC(=O)CNC(=O)[C@H](CCCCN)NC(=O)[C@H](Cc2ccc(O)cc2)NC(=O)[C@H](CCCCN)NC(=O)[C@H](Cc2c[nH]cn2)NC(=O)[C@H](C)NC(=O)[C@H](CCC(N)=O)NC(=O)[C@@H]2CCCN2C(=O)[C@H](Cc2c[nH]cn2)NC(=O)[C@H](CCC(=O)O)NC(=O)[C@H](CCC(N)=O)NC(=O)COCCOCCNC(=O)COCCOCCNC(=O)CC[C@H](NC(=O)CC[C@H](NC(=O)CC[C@H](NC(=O)CC[C@H](NC(=O)CCCCCCCCCCCCCCCCC(=O)O)C(=O)O)C(=O)O)C(=O)O)C(=O)O)CSSC[C@@H](C(=O)O)NC(=O)CNC(=O)[C@H](CC(C)C)NC(=O)CNC(=O)[C@H](CO)NC(=O)[C@H](CC(C)C)NC(=O)[C@H](CO)NC(=O)CNC1=O` [compound 1400] ({C18 diacid-γGlu-γGlu-γGlu-γGlu-AEEA-AEEA}-QEHPQAHKYKGAQKKGGSQGCFGLPLDRIGSLSGLGC-OH; disulfide 21-37), for which the “hNPR2 0% HSA. [EC50% rel CNP]” value worked out at 85.3%.
